Measured values published in patent publication US9221810B2, “Substituted bicyclic aromatic compounds as S-nitrosoglutathione reductase inhibitors” (Nivalis Therapeutics, Inc., priority 2010, dated 2015).

Target: T1, GSNOR (Homo sapiens, UniProt P11766)
T1 construct: made in house; host or cells: E. coli (arabinose-induced)
Assay: GSNOR assay (inhibition of GSNOR activity, NADH absorbance at 340 nm)
Format: biochemical
Conditions: printed as 'about <'; 0.240 mM GSNO, 0.300 mM NADH, pH 7.4, 25° C.
Method: GSNOR expression and purification is described in Biochemistry 2000, 39, 10720-10729.
GSNOR Fermentation: Pre-cultures were grown from stabs of a GSNOR glycerol stock in 2XYT media containing 100 ug/ml ampicillin after an overnight incubation at 37° C. Cells were then added to fresh 2XYT (4 L) containing ampicillin and grown to an OD (A600) of 0.6-0.9 at 37° C. before induction. GSNOR expression was induced with 0.1% arabinose in an overnight incubation at 20° C.
GSNOR Purification: E. coli cell paste was lysed by nitrogen cavitation and the clarified lysate purified by Ni affinity chromatography on an AKTA FPLC (Amersham Pharmacia). The column was eluted in 20 mM Tris pH 8.0/250 mM NaCl with a 0-500 mM imidazole gradient. Eluted GSNOR fractions containing the Smt-GSNOR fusion were digested overnight with Ulp-1 at 4° C. to remove the affinity tag then re-run on the Ni column under the same conditions. GSNOR was recovered in the flowthrough fraction and for crystallography is further purified by Q-Sepharose and Heparin flowthrough chromatography in 20 mM Tris pH 8.0, 1 mM DTT, 10 uM ZnSO4.
GSNOR Assay: GSNO and enzyme/NADH Solutions are made up fresh each day. The solutions are filtered and allowed to warm to room temperature. GSNO solution: 100 mM NaPO4 (pH 7.4), 0.480 mM GSNO. 396 μL of GSNO Solution is added to a cuvette followed by 8 μL of test compound in DMSO (or DMSO only for full reaction control) and mixed with the pipette tip. Compounds to be tested are made up at a stock concentration of 10 mM in 100% DMSO. 2 fold serial dilutions are done in 100% DMSO. 8 μL of each dilution are added to an assay so that the final concentration of DMSO in the assay is 1%. The concentrations of compounds tested range from 100 to 0.003 μM. Enzyme/NADH solution: 100 mM NaPO4 (pH 7.4), 0.600 mM NADH, 1.0 μg/mL GSNO Reductase. 396 μL of the Enzyme/NADH solution is added to the cuvette to start the reaction. The cuvette is placed in the Cary 3E UV/Visible Spectrophotometer and the change in 340 nm absorbance/min at 25° C. is recorded for 3 minutes. The assays are done in triplicate for each compound concentration. IC50's for each compound are calculated using the standard curve analysis in the Enzyme Kinetics Module of SigmaPlot.
Final assay conditions: 100 mM NaPO4, pH 7.4, 0.240 mM GSNO, 0.300 mM NADH, 0.5 μg/mL GSNO Reductase, and 1% DMSO. Final volume: 800 μL/cuvette.

T1 sequence (P11766 whole entry): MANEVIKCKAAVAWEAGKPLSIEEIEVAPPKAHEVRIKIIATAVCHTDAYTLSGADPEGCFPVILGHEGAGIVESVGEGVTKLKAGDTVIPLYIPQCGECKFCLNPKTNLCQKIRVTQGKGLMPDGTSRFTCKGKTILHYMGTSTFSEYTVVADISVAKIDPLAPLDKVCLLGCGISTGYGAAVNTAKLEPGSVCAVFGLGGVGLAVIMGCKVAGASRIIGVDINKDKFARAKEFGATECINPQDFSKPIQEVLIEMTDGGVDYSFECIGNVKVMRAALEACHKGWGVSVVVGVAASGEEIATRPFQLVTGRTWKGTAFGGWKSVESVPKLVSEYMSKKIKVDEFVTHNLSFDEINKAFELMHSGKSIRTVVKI

Structure (SMILES)	IC50
O=C(O)[C@H]1CC[C@H](c2nc3ccc(O)cc3cc2C(F)(F)F)CC1 [Example 43, (1r,4r)-4-(6-hydroxy-3-(trifluoromethyl)quinolin-2-yl)cyclohexanecarboxylic acid]	< 100 nM
O=C(O)c1ccc(-c2ncc3cc(O)ccc3n2)cc1 [Example 45, 4-(6-hydroxyquinazolin-2-yl)benzoic acid]	< 100 nM
O=C(O)c1ccc(-c2ccc3cc(O)ccc3n2)c(C(F)(F)F)c1 [Example 30, 4-(6-hydroxyquinolin-2-yl)-3-(trifluoromethyl)benzoic acid]	< 100 nM

Further lines, results first:

IC50	Structure (SMILES)
< 100 nM	O=C(O)c1ccc(-c2cc3ccc(O)cc3cn2)c(F)c1 [Example 65, 3-fluoro-4-(7-hydroxyisoquinolin-3-yl)benzoic acid]
< 500 nM	O=C(O)[C@H]1CC[C@H](c2ccc3cc(O)ccc3n2)CC1 [Example 6, (1r,4r)-4-(6-hydroxyquinolin-2-yl)cyclohexanecarboxylic acid]
< 100 nM	O=C(O)c1ccc(-c2nc3ccc(O)cc3cc2C(F)(F)F)cc1 [Example 31, 4-(6-hydroxy-3-(trifluoromethyl)quinolin-2-yl)benzoic acid]
< 100 nM	O=C(O)c1ccc(-c2cc(F)c3cc(O)ccc3n2)c(Cl)c1 [Example 37, 3-chloro-4-(4-fluoro-6-hydroxyquinolin-2-yl)benzoic acid]

Test system: not listed separately
Assay: Mouse pharmacokinetic (PK) study
Format: in vivo, male BALB/c mice
Conditions: male, BALB/c, plasma, po, 10 mg/kg, IV 2 mg/kg, read-out: oral bioavailability (% F)
Source text: The mouse was used to determine the pharmacokinetics of compounds of the invention. This species is widely used to assess the bioavailability of compounds by administering both oral (PO) and intravenous (IV) test articles. Efficacy of the compounds of the invention was compared by assessing plasma exposure in male BALB/c mice either via IV or PO administration at the times of peak activity.
Compounds of the invention were reconstituted in a phosphate buffered saline (PBS)/10% Solutol (HS 15) clear solution resulting in a concentration of 0.2 mg/mL and administered to mice (2 mg/kg) as a single IV dose. Animals were dosed via the lateral tail vein. Blood samples were collected at designated time points (0.083, 0.25, 0.5, 1, 2, 4, 8, 16, 24 hours) by cardiac puncture under isoflurane anesthesia (up to 1 mL blood per animal). The blood was collected into tubes containing Li-Heparin. The blood samples were kept on ice until centrifugation within approximately 30 minutes of collection. The plasma was transferred into labeled polypropylene tubes and frozen at −70° C. until analyzed by LC/MS/MS.
The compounds of the invention were reconstituted in 40% Propylene Glycol/40% Propylene Carbonate/20% of a 5% Sucrose clear solution resulting in a concentration of 2 mg/mL and administered to mice (10 mg/kg) as a single oral dose via gavage. Blood samples were collected at 0.25, 0.5, 1, 2, 4, 8, 12, 16, 20 and 24 hours post dose by cardiac puncture under isoflurane anesthesia. The blood was collected in tubes containing Li-Heparin. […] The plasma was transferred into labeled polypropylene tubes and frozen at −70° C. until analyzed by LC/MS/MS.
Plasma samples at each timepoint were analyzed using a LC-MS/MS with a lower limit of quantification (LLOQ) of 1 ng/mL. Plasma was analyzed to determine the amount of the compound of the invention in each sample and regression curves generated for each compounds of the invention in the relevant matrixes. […]
In addition to the above PK parameters, bioavailability (% F) was calculated.

Structure (SMILES)	bioavailability
O=C(O)c1ccc(-c2nc3ccc(O)cc3cc2Cl)c(F)c1 [Example 28, 4-(3-chloro-6-hydroxyquinolin-2-yl)-3-fluorobenzoic acid]	> 9%
O=C(O)c1ccc(-c2nc3ccc(O)cc3cc2Cl)cc1 [Example 19, 4-(3-chloro-6-hydroxyquinolin-2-yl)benzoic acid]	> 9%

Test system: acute dextran sodium sulfate (DSS)-induced IBD
Assay: Acute prophylactic model of DSS-induced IBD in mice
Format: in vivo, male C57Bl/6 mice
Conditions: oral 10 mg/kg/day for 10 consecutive days, prophylactic
Source text: Acute and chronic models of dextran sodium sulfate (DSS)-induced IBD in mice were used to explore efficacy of GSNORi against this disease. Acute and chronic DSS-induced IBD are widely used and well characterized models that induce pathological changes in the colon similar to those observed in the human disease. In these models and in human disease, epithelial cells within the crypts of the colon are disrupted, leading to dysfunction of the epithelial barrier and the ensuing tissue inflammation, edema, and ulceration. GSNORi therapy may benefit IBD by restoring s-nitrosoglutathione (GSNO) levels, and thus prevent or reverse the epithelial barrier dysfunction. Experimental IBD was induced by administration of DSS in the drinking water of male C57Bl/6 mice (N=8 to 10 mice per group) for 6 consecutive days. GSNORi was dosed orally at doses of 0.1 to 10 mg/kg/day for 10 days starting two days prior to and continuing two days post DSS exposure. Two days post DSS exposure, the effect of GSNORi was assessed in a blinded fashion via endoscopy and histopathology using a five point scale ranging from a score=0 (normal tissue) through a score=4 (ulcerative tissue damage and marked pathological changes). Levels of circulating cytokines involved in inflammatory pathways were also assessed. The effect of GSNORi was compared to vehicle treated controls. The corticosteroid, prednisolone, was used as the positive control in this study and was administered daily at 3 mg/kg/day via oral dosing. Naïve mice (N=5) were also assessed as a normal tissue control.

Structure (SMILES)	decrease of percent of mice with severe colon injury scores via endoscopy
O=C(O)c1ccc(-c2nc3ccc(O)cc3cc2Cl)cc1 [Example 19, 4-(3-chloro-6-hydroxyquinolin-2-yl)benzoic acid]	31 % of vehicle control

Test system: cigarette smoke-induced COPD (subchronic 11 day)
Assay: Subchronic (11 day) cigarette smoke exposure COPD model
Format: in vivo, female C57Bl/6 mice
Conditions: subchronic 11 day model; roflumilast 5 mg/kg/day
Method: The efficacy of GSNOR inhibitors was assessed in a mouse model of chronic obstructive pulmonary disease (COPD) induced by short duration (4 days or 11 days) of exposure to cigarette smoke. Infiltration of inflammatory cells into the bronchoalveolar lavage fluid (BALF) and BALF levels of chemokines involved in inflammation and tissue turnover/repair were measured to assess the influences of GSNOR inhibitors on some of the early events associated with the initiation and progression of COPD.
Efficacy of GSNOR inhibitors against COPD was explored using acute (4 day) and subchronic (11 day) models of cigarette smoke-induced COPD in mice. […] In animal models, changes in lung pathology are only evident after extended (several months) duration of exposure to cigarette smoke, thus making chronic models prohibitive as effective screening tools. More recently, models exploring inflammatory responses after short duration (2 weeks or less) of smoke exposure in mice have been utilized as tools for screening efficacy and mechanisms of action of novel therapeutics against COPD. The key roles of inflammation in the initiation and progression of COPD, make these short duration models relevant for initial tests of efficacy of novel therapeutics.
Subchronic (11 Day) Smoke Exposure Model: Female C57Bl/6 mice (N=10 per group) were exposed to cigarette smoke generated from Marlboro 100 cigarettes without filters. Exposure times were 25 min. on study day 1, 35 min. on study day 2, and 45 min. on study days 3 to 11. GSNOR inhibitors were administered one hour prior to smoke exposure on each day. GSNOR inhibitors were dosed orally at 1 to 10 mg/kg/day for 11 days. The effects of GSNOR inhibitors were assessed by quantitating the number of total cells, and leukocytes differentials in the BALF via light microscopy at 24 h after the last exposure. The effect of GSNOR inhibitors were compared to vehicle treated controls and expressed as percent inhibition of the cigarette smoke induced increases in BALF cell numbers. Roflumilast was used as the positive control for the study and was dosed at 5 mg/kg/day. A group of naïve mice (N=10) was exposed to air and dosed with vehicle as a negative control for the study.

Structure (SMILES)	effects compared to roflumilast (positive control)
Cc1cc(C(=O)O)ccc1-c1ccc2cc(O)ccc2n1 [Example 27, 4-(6-hydroxyquinolin-2-yl)-3-methylbenzoic acid]	comparable to those of roflumilast
O=C(O)c1ccc(-c2ccc3cc(O)ccc3n2)c(F)c1 [Example 13, 3-fluoro-4-(6-hydroxyquinolin-2-yl)benzoic acid]	comparable to those of roflumilast
